# Key:
# [1] = tested on: L1210 tumor cells; assay: anticancer activity (growth of L1210 tumor cells, trypan blue staining of surviving cells); type: cell-based; conditions: Mus musculus, 48 h, 2.5×10^4 cells/ml, grown for 2 days
# Description: Measurement of anticancer activity
# Tumor cells were grown in an RPMI 1640 medium containing of 10% fetal calf serum.
# The compound was dissolved in 99.5% ethanol, adjusted before use so that the final concentration of ethanol was 0.1% or less, and added to the medium.
# The control was 0.1% ethanol, and L1210 tumor cells were inoculated in the medium in a concentration of 2.5×10^4 cells/ml and grown for 2 days. The number of surviving cells were measured by trypan blue staining.
# [2] = tested on: Human osteoblasts (KK-3, 18PDL); assay: bone formation activity (Ca, P and alkaline phosphatase in human osteoblasts); type: cell-based; conditions: 14 days
# Description: Measurement of bone formation activity
# Human osteoblasts (KK-3, 18PDL) were cultured in an α-MEM containing 10% fetal calf serum. After the growth become stationary, the compound was added in a given concentration in the presence of 2 mM α-glycerophosphate and treated for 14 days. The cell phase was washed with physiological saline, and the alkaline phosphatase activity (ALP) was measured through the absorption of OD415. Then, calcium (Ca) and phosphorus (P) were extracted with a 2N hydrochloric acid and quantitatively determined.
# [3] = Table 6, 1.0 × 10^-6, control 0.550 ± 0.040
# [4] = Table 6, 1.0 × 10^-6, control 11.00 ± 1.73
# [5] = Table 6, 2.5 × 10^-7 M, control 0.550 ± 0.040
# [6] = Table 6, 2.5 × 10^-7 M, control 11.00 ± 1.73
# [7] = Table 6, 2.5 × 10^-7 M, control 20.00 ± 1.73
# [8] = Table 9, 1.0 × 10^-6 M, control 1.15 ± 0.19
# [9] = Table 9, 1.0 × 10^-6 M, control 2.17 ± 2.56
# [10] = Table 9, 1.0 × 10^-6 M, control 3.83 ± 1.72
# [11] = Table 9, 3.3 × 10^-6, control 1.15 ± 0.19
# [12] = Table 9, 3.3 × 10^-6, control 2.17 ± 2.56
structure (smiles),measurement,setting,value
O=C1C=CC(O)(CCCCOc2ccccc2)/C1=C\c1ccncc1 (stereo not shown),IC50,[1],0.021 µg/mL
CN(C)c1ccc(C=C2C(=O)C=CC2(O)CCCCOc2ccccc2)cc1 (stereo not shown),IC50,[1],0.378 µg/mL
COC(=O)c1ccc(/C=C2/C(=O)C=CC2(O)CCCCOc2ccccc2)cc1 (stereo not shown) [drawing 207],IC50,[1],0.014 µg/mL
COC(=O)c1ccc(/C=C2/C(=O)C=C(C)C2(O)CCCCOc2ccccc2)cc1 (stereo not shown) [drawing 208],IC50,[1],10.8 µg/mL
COC(=O)c1ccc(/C=C2/C(=O)C(Cl)=CC2(O)CCCCOc2ccccc2)cc1 (stereo not shown) [drawing 209],IC50,[1],0.004 µg/mL
CN(C)c1ccc(/C=C2/C(=O)C(Cl)=CC2(O)CCCCOc2ccccc2)cc1 (stereo not shown) [drawing 212],IC50,[1],0.062 µg/mL
COC(=O)c1ccc(/C=C2/C(=O)C=C[C@@]2(O)CCCCOc2ccccc2)cc1 [drawing 213],IC50,[1],0.01 µg/mL
COC(=O)c1ccc(/C=C2/C(=O)C=C[C@]2(O)CCCCOc2ccccc2)cc1 [drawing 214],IC50,[1],0.026 µg/mL
COC(=O)c1ccc(/C=C2/C(=O)C=CC2(O)CCCCOc2ccccc2)cc1 (stereo not shown) [drawing 215],ALP,[2]; [3],0.488 OD415 /dish
same,Ca,[2]; [4],47.00 ± 1.00 μg/dish
same,ALP,[2]; [5],0.572 ± 0.028 OD415 /dish
same,Ca,[2]; [6],22.67 ± 3.51 μg/dish
same,P,[2]; [7],28.33 ± 2.52 μg/dish
COC(=O)c1ccc(/C=C2/C(=O)C(Cl)=CC2(O)CCCCOc2ccccc2)cc1 (stereo not shown) [drawing 216],ALP,[2]; [3],0.0 OD415 /dish
same,Ca,[2]; [4],124.50 ± 2.12 μg/dish
same,ALP,[2]; [5],0.484 ± 0.078 OD415 /dish
same,Ca,[2]; [6],37.00 ± 1.00 μg/dish
same,P,[2]; [7],36.00 ± 1.00 μg/dish
CN(C)c1ccc(/C=C2/C(=O)C(Cl)=CC2(O)CCCCOc2ccccc2)cc1 (stereo not shown) [drawing 217],P,"[2]; Table 7, 10^-6 M, control 0.17 ± 0.29",1.72 ± 0.05 μg/dish
same,Ca,"[2]; Table 7, 10^-6 M, control 0.33 ± 0.29",23.50 ± 3.77 μg/dish
same,ALP,"[2]; Table 7, 10^-6 M, control 0.826 ± 0.006",0.503 OD415 /dish
same,P,"[2]; Table 7, 10^-7 M, control 0.17 ± 0.29",0.33 ± 0.29 μg/dish
same,Ca,"[2]; Table 7, 10^-7 M, control 0.33 ± 0.29",0.0 ± 0 μg/dish
same,ALP,"[2]; Table 7, 10^-7 M, control 0.826 ± 0.006",0.796 ± 0.047 OD415 /dish
COC(=O)c1ccc(/C=C2/C(=O)C=C(C)C2(O)CCCCOc2ccccc2)cc1 (stereo not shown) [drawing 218],Ca,"[2]; Table 8, 10^-4 M, control 0.33 ± 0.58",8.133 ± 3.06 μg/dish
same,ALP,"[2]; Table 8, 10^-4 M, control 1.684 ± 0.068",0.697 OD415 /dish
same,P,"[2]; Table 8, 10^-4 M, control 7.67 ± 0.58",50.33 ± 1.53 μg/dish
same,Ca,"[2]; Table 8, 10^-5 M, control 0.33 ± 0.58",1.00 ± 0.0 μg/dish
same,ALP,"[2]; Table 8, 10^-5 M, control 1.684 ± 0.068",1.538 ± 0.028 OD415 /dish
same,P,"[2]; Table 8, 10^-5 M, control 7.67 ± 0.58",8.33 ± 1.53 μg/dish
COC(=O)c1ccc(/C=C2/C(=O)C=C[C@]2(O)CCCCOc2ccccc2)cc1 [drawing 219],ALP,[2]; [8],0.74 ± 0.06 OD415 /dish
same,Ca,[2]; [9],18.00 ± 8.00 μg/dish
same,P,[2]; [10],13.00 ± 4.69 μg/dish
same,ALP,[2]; [11],1.79 OD415 /dish
same,Ca,[2]; [12],318.50 ± 12.50 μg/dish
COC(=O)c1ccc(/C=C2/C(=O)C=C[C@@]2(O)CCCCOc2ccccc2)cc1 [drawing 220],ALP,[2]; [8],0.04 ± 0.01 OD415 /dish
same,Ca,[2]; [9],312.17 ± 12.30 μg/dish
same,P,[2]; [10],170.33 ± 11.60 μg/dish
same,ALP,[2]; [11],0.03 OD415 /dish
same,Ca,[2]; [12],328.00 ± 15.90 μg/dish
